Four molecules from patent publication US4409240A, “Derivatives of dihydroxybenzoic acid and pharmaceutical composition thereof” (Kureha Kagaku Kogyo Kabushiki Kaisha, priority 1981, dated 1983) can be followed below.

One data set is described as follows: in vivo. Conditions: mouse, in vivo, po. The text has this:
(§1) Acute toxicity was examined by administering perorally an aqueous solution of each Specimen to female JCL-ICR mouse of 5 to 6 weeks after birth. As the Specimen, trans-4-[N-(3',4'-dihydroxybenzoyl)aminomethyl]cyclohexane-1-carboxylic acid, 4-[N-(3',4'-dihydroxybenzoyl)amino]benzoic acid and 6-[N-(3',4'-dihydroxybenzoyl)amino]caproic acid were used.

Another data set concerns female JCL-ICR mouse. Put plainly: Acute toxicity. Conditions: peroral, aqueous solution, female JCL-ICR mouse 5 to 6 weeks.
Description: as §1

Data set [1] has as its system polynuclear leukocyte migration. As to the kind of experiment: Inhibitory effect on polynuclear leukocyte migration (Granuloma CMC pouch method). Conditions: average value; 100 mg p.o./kg body weight; 6 hours after the administration; rat CMC pouch. Type of data set: in vivo, rat (male, Donyru). On the procedure:
After shearing the rat on the dorsum about 5 cm in diameter, 5 ml of air was hypodermically injected into the site to form a pouch. After 24 hours, 5 ml of aqueous 2% (w/v) solution of CMC sodium salt at 37° C. was injected into the pouch, and at the same time an aqueous solution of each Specimen was administered perorally to the rat.
After the injection of CMC, the liquid in the pouch was collected as the time passed by in an amount of 0.5 ml and stained. Then the number of polynuclear leukocyte migrated into the pouch was counted.

The next data set concerns adjuvant arthritis. Put plainly: Prophylactic effect on adjuvant arthritis. Type of data set: in vivo, rat (female JCL-SD). The note with it: average value of prophylactic rate; 100 mg p.o./kg/day for continuous 14 days; rat. On the procedure: Freund's complete adjuvant (0.6 mg/0.1 ml) was inoculated into the right hind paw of the etherized rat. After palinesthesia, each specimen was administered perorally once a day for 14 continuous days.

For data set [2], the system named is platelet aggregation (rabbit platelet rich plasma). Put plainly: Inhibitory effect on platelet aggregation (induced by sodium arachidonate). Type of data set: cell-based. The note with it: Oryctolagus cuniculus, average value, 1.5 mM of each Specimen, rabbit PRP, preincubated 37° C. 5 min, read-out: Inhibition rate of platelet aggregation. On the procedure: Rabbit platelet rich plasma (PRP) was used for Aggregation Tests. PRP was prepared by centrifugation of blood collected from the ear vein of Rabbit and diluted into number-concentration 300,000/μl with platelet poor plasma. Platelet aggregation was induced by Sodium Arachidonate and monitored (measured) with a four channel platelet aggregation Tracer PAT-4A (Niko Bioscience Co., Japan). Aggregation Tracer tube containing 230 μl PRP was preincubated at 37° C. for 5 min with each Specimen.

Molecules are shown by their SMILES.

As to `O=C(O)c1ccc(NC(=O)c2ccc(O)c(O)c2)cc1` [4-[N-(3',4'-dihydroxybenzoyl)amino]benzoic acid], the LD50 (commonly the dose expected to kill half of the subjects tested) in “in vivo” is > 3000 mg/kg. Moreover, in the data set on female JCL-ICR mouse, the “abnormality on the mouse” value is “no abnormality on the mouse was found”.

As to `O=C(NC[C@H]1CC[C@H](C(=O)O)CC1)c1ccc(O)c(O)c1` [trans-4-[N-(3',4'-dihydroxybenzoyl)aminomethyl]cyclohexane-1-carboxylic acid], the “Inhibition rate of polynuclear leukocyte migration” value in data set [1] was 35%. In addition, the “Prophylactic effect on adjuvant arthritis” value in the data set on adjuvant arthritis is on record as 30%. Also, the LD50 in the data set “in vivo” is > 3000 mg/kg. Also, in the data set with female JCL-ICR mouse, the “abnormality on the mouse” value was “no abnormality on the mouse was found”. Besides, in data set [2], the inhibition (as a rule, the drop in the measured response relative to a control, in per cent) at 1500 µM was 100%.

`O=C(O)CCCCCNC(=O)c1ccc(O)c(O)c1` [6-[N-(3',4'-dihydroxybenzoyl)amino]caproic acid]: the LD50 in the data set “in vivo” is > 3000 mg/kg. In addition, the “abnormality on the mouse” value with female JCL-ICR mouse is on record as “no abnormality on the mouse was found”.

For the molecule `O=C(NC[C@H]1CC[C@H](C(=O)O)CC1)c1ccccc1O.[Na]` [Sodium trans-4-(N-salicyloyl-aminomethyl)cyclohexane-1-carboxylic acid, reference compound], the “Inhibition rate of polynuclear leukocyte migration” value in data set [1] is on record as 5%. In the data set with adjuvant arthritis, the “Prophylactic effect on adjuvant arthritis” value was found to be 5%. In addition, the inhibition at 1500 µM in data set [2] was found to be 10%.
